Entries after “also recorded” stand apart in the source; their conditions may differ.
Key:
[1] = test system: deep lymphatic system (lymph nodes, thoracic duct); assay: Whole-body dynamic 3D-micro-MRL after intracutaneous injection, normal mice (Examples 2, 3); type: in vivo; details: for Number of Mice in Which the Thoracic Duct was Visualized/Number of Mice Examined: Normal Mice, 0.1 μmolGd intracutaneously; for Axillary lymph node-to-background (muscle) signal intensity ratio / Axillary lymph node-to-liver signal intensity ratio: all time points examined; for Axillary lymph node-to-background (muscle) signal intensity ratio: FIG. 11A; for Axillary lymph node-to-liver signal intensity ratio: FIG. 11B
Experimental: (§1) The mice were anesthetized with 1.15 mg sodium pentobarbital (Dainabot, Osaka, Japan) by intraperitoneal injection, and then injected intracutaneously with 0.1 μmolGd of PAMAM-G8, DAB-G5, PAMAM-G4, Gadomer-17, or GPDM into four middle phalanges in all four extremities. Dynamic micro-MR images were obtained using a 1.5-Tesla superconductive magnet unit (Signa LX, General Electric Medical System, Milwaukee, Wis.) with a round birdcage type coil of 3 cm diameter fixed by a custom-made coil holder. Four to eight female mice (7 weeks old, 18-21 g body weight) in each group were used and each contrast agent was prepared at least three separate times for these imaging studies. The mice were wrapped with gauze to stabilize their body temperature and were placed at the center of the coils.
(§2) A 3D-fast spoiled gradient echo (3D-fastSPGR (efgre3d package; Signa Horizon, GE); repetition time/echo time 28.5/7.9 msec; inversion time 65 msec; 31.2 kHz, flip angle 30°, four excitations; 40 slice-encoding steps; scan time 7 min 36 seconds) with chemical shift fat-suppression was used 10, 20, 30, and 45 min after injection of the contrast agents. The coronal images were reconstructed with 0.6-mm section thickness at every 0.3-mm. The field of view was 6×3 cm and the size of the matrix was 512×256. The intensities of the regions of interest (for example, a whole axillary lymph node, and the liver) were measured, and then the time-intensity curves analyzed. The data were expressed as the axillary lymph node-to-muscle and the axillary lymph node-to-liver ratios. The slice data were processed into 3D images using the MIP method with the same window and level (window 3500 and level 2300) (Advantage Windows, General Electric Medical System). Two board-certified radiologists separately read a set of stereo views of 3D-MRL for all studies, and estimated the visualization of the thoracic duct. After imaging, the mice were sacrificed by carbon dioxide inhalation.
In this example, the PAMAM-G8 contrast agent is compared to GPDM. PAMAM-G8 was prepared as described in Example 2, and GPDM was purchased (Schering AG, Berlin, Germany). Animal models, administration of the contrast agents, and 3D-micro-MRL were as described in Example 2.

[2] = test system: axillary lymph nodes and their lymphatic vessels; assay: Dynamic 3D-MR lymphangiography, effect of contrast agent size (Example 4); type: in vivo, athymic nu/nu mice; details: for Visualization of axillary lymph nodes and their lymphatic vessels: 6-36 minutes post-injection into mammary gland; for Depiction of lymphatic vessels / Signal intensity of adjacent muscle in comparison to G6 and G8 / Signal intensity within the axillary lymph nodes in comparison to G6 and G8: mouse, in vivo; for Signal intensity within the axillary lymph node (enhancement ratio, lymph node / adjacent muscle): 0.15 μmolGd/5 μL
Experimental: Mice were anesthetized with 1.15 mg sodium pentobarbital (Dainabot, Osaka, Japan) by intraperitoneal injection. Then 0.15 μmolGd/5 μL of all nano-size contrast agents or 0.45 μmolGd/5 μL of Gd-[DTPA]-dimeglumine were injected into normal mammary glands or mammary tissue surrounding a tumor. Dynamic MR images were obtained using a 1.5-Tesla superconductive magnet unit (Signa LX, General Electric Medical System, Milwaukee, Wis.) with a birdcage type coil of 3 cm diameter fixed by a custom-made coil holder. The mice were wrapped with gauze to conserve their body temperature and were placed at the center of the coils.
In order to evaluate the effect of contrast agent molecular size on the ability to visualize the lymphatics and lymph nodes of athymic nu/nu mice, thirty five non-tumor bearing nu/nu mice were divided into seven groups (n=5). The mice were evaluated with 3D-fast spoiled gradient echo (3D-fastSPGR (efgre3d package; Signa Horizon, GE); repetition time/echo time 19.2/7.2 msec; inversion time 47 msec; bandwidth 31.2 kHz, flip angle 30°, 4 excitations; 36 slice encoding steps; scan time 4 minutes 49 seconds) with chemical shift fat-suppression at 6, 12, 18, 24, 30, and 36 minutes post-injection of each contrast agent. The coronal images were reconstructed with 0.6-mm section thickness every 0.3-mm. The field of view was 8×4 cm and the size of the matrix was 512×256. The slice data were processed into 3D images using the maximum intensity projection (MIP) method with the same window and level (window 3500 and level 2100) (Advantage Windows, General Electric Medical System). The enhancement ratio was calculated by taking the average signal intensity in the axillary lymph node and dividing it by the signal intensity in the adjacent muscle.

[3] = in vivo
[4] = test system: lymphatic vessels and lymph nodes of disease model mice; assay: 3D-micro-MRL in lymphatic disease models (Concanavalin A lymphangitis, IL-15 transgenic); type: in vivo; details: for Visualization of lymph nodes in lymphoproliferation/lymphoma: 45 minutes after injection
Experimental: To generate a lymphangitis model, Concanavalin A ([…]) (Sigma, St. Louis, Mo.) was injected intravenously into C57BL6 mice (NCI, Frederick, Md.) 24 hours before MRI was performed.
Eight- to 10-month old IL-15 transgenic mice (on a C57BL6 background) were used as a chronic lymphoproliferative/neoplastic disease model because they manifested selective expansion of NK, CD8^+NK-T, γδIELs, and CD8 T cells in the periphery. Most of the lymph nodes collected from an aged IL-15 transgenic mouse were enlarged in size. The lesion of proliferated monoclonal lymphocytes often involved the lung and the subcutaneous lymphatic tissue.
as §1, §2

[5] = Example 2, normal mice, 10-45 min after injection

Substance | Visualization of deep lymph nodes [1, 5] | Number of Mice in Which the Thoracic Duct was Visualized/Number of Mice Examined ([1]; 10 min) | Number of Mice in Which the Thoracic Duct was Visualized/Number of Mice Examined ([1]; 20 min) | Number of Mice in Which the Thoracic Duct was Visualized/Number of Mice Examined ([1]; 30 min) | Number of Mice in Which the Thoracic Duct was Visualized/Number of Mice Examined ([1]; 45 min) | Axillary lymph node-to-background (muscle) signal intensity ratio [1] | Axillary lymph node-to-liver signal intensity ratio [1] | Visualization of axillary lymph nodes and their lymphatic vessels [2] | Depiction of lymphatic vessels [2] | Signal intensity within the axillary lymph nodes in comparison to G6 and G8 [2] | Visualization of lymph nodes in lymphoproliferation/lymphoma ([4]; IL-15 transgenic mice, FIG. 13) | also measured
Gadomer-17 [reference compound] | allowed visualization of the deep lymph nodes, albeit not as clearly and brightly as the dendrimer-based agents | 2/5 | 2/5 | 1/5 | 1/5 | significantly higher than that acquired with GPDM | nearly equivalent, but were significantly higher than that measured with GPDM | superior to the G2 and G4 PAMAM dendrimers; also recorded: better contrast than PAMAM dendrimer-based agents of similar sizes | neither agent depicted lymphatic vessels | lower signal intensities |  | Signal intensity of adjacent muscle in comparison to G6 and G8 [2]: significantly higher than those measured with G6 and G8; Clearance from the body ([3]; iv): rapidly cleared from the body
PAMAM-G4D-(Gd-1B4M)64 dendrimer conjugate |  | 4/5 | 4/5 | 3/5 | 2/5 | significantly higher than that measured with Gadomer-17 and GPDM | significantly higher than that acquired with PAMAM-G8, DAB G-5, or Gadomer-17 | able to depict the lymph nodes only faintly and then only up to 12 minutes post-injection |  |  |  | Signal intensity of adjacent muscle in comparison to G6 and G8 ([2]; listed as G4): significantly higher than those measured with G6 and G8; also recorded: higher signal in the adjacent muscle; Signal intensity within the axillary lymph nodes in comparison to G6 and G8 ([2]; listed as G4): lower signal intensities; also recorded: significantly lower signal; Survival in the blood circulation [3]: short survival in the blood circulation due to a rapid renal excretion without significant retention in other organs
DAB-Am-128-(Gd-1B4M)128 dendrimer conjugate [DAB-G5] |  | 3/5 | 2/5 | 0/5 | 0/5 | significantly higher than that obtained with either PAMAM-G8 or PAMAM-G4 | nearly equivalent, but were significantly higher than that measured with GPDM | superior to the G2 and G4 PAMAM dendrimers; also recorded: better contrast than PAMAM dendrimer-based agents of similar sizes | neither agent depicted lymphatic vessels | lower signal intensities | considerable multiple lymph node swellings with central filling defects | 
PAMAM-G7D-(Gd-1B4M)1024 dendrimer conjugate [PAMAM-G8] | enabled most of the deep lymph nodes to be visualized | 10/10 | 10/10 | 10/10 | 10/10 | significantly higher than that measured with Gadomer-17 and GPDM | nearly equivalent, but were significantly higher than that measured with GPDM | visualized at all time points in all 10 mice |  |  | considerable multiple lymph node swellings with central filling defects | Visualization of lymphatic vessels ([1]; Example 2): better visualized with PAMAM-G8 compared to all other agents examined; Visualization by a radiologist of the thoracic duct ([1]; Example 2, all times after administration): in all mice at all times after administration; Visualization of deep lymph nodes ([1]; Example 3, FIG. 15): most deep lymph nodes throughout the body were visualized; Visualization of the thoracic duct ([1]; Example 3, FIG. 15): visualized in all six mice; Visualization of lymphatic vessels in lymphangitis ([4]; Concanavalin A lymphangitis model, FIG. 12): demonstrated the remarkable dilation of the lymphatic vessels throughout the body, especially in the liver; Visualization of dilation of lymphatic vessels ([4]; IL-15 transgenic mice, FIG. 13): best visualized with PAMAM-G8; Signal intensity within the axillary lymph node (enhancement ratio, lymph node / adjacent muscle) ([2]; 6 minutes post-injection): 1.7±0.2; Signal intensity within the axillary lymph node (enhancement ratio, lymph node / adjacent muscle) ([2]; 12 minutes post-injection): 2.3±0.2; Leakage out of the lymphatic vessels [3]: minimal leakage out of the lymphatic vessels
